Assay results published in article PMC9145196, “The Antileukemic and Anti-Prostatic Effect of Aeroplysinin-1 Is Mediated through ROS-Induced Apoptosis via NOX Activation and Inhibition of HIF-1a Activity” (Life, 2022).

Tests used:
[1] = target: T1, topo IIα (Homo sapiens, UniProt P11388); assay: cell-free topo II relaxation assay of supercoiled pHOT1 plasmid DNA; assay type: biochemical
T1 construct: gene TOP2A

[2] = target: T2, Hsp90 (Homo sapiens, UniProt P07900); assay: protein thermal shift assay (Sypro Orange), Tm increase at […] Apl-1; assay type: binding
T2 construct: gene HSP90AA1; HSP90 recombinant protein

T1 sequence (P11388 whole entry): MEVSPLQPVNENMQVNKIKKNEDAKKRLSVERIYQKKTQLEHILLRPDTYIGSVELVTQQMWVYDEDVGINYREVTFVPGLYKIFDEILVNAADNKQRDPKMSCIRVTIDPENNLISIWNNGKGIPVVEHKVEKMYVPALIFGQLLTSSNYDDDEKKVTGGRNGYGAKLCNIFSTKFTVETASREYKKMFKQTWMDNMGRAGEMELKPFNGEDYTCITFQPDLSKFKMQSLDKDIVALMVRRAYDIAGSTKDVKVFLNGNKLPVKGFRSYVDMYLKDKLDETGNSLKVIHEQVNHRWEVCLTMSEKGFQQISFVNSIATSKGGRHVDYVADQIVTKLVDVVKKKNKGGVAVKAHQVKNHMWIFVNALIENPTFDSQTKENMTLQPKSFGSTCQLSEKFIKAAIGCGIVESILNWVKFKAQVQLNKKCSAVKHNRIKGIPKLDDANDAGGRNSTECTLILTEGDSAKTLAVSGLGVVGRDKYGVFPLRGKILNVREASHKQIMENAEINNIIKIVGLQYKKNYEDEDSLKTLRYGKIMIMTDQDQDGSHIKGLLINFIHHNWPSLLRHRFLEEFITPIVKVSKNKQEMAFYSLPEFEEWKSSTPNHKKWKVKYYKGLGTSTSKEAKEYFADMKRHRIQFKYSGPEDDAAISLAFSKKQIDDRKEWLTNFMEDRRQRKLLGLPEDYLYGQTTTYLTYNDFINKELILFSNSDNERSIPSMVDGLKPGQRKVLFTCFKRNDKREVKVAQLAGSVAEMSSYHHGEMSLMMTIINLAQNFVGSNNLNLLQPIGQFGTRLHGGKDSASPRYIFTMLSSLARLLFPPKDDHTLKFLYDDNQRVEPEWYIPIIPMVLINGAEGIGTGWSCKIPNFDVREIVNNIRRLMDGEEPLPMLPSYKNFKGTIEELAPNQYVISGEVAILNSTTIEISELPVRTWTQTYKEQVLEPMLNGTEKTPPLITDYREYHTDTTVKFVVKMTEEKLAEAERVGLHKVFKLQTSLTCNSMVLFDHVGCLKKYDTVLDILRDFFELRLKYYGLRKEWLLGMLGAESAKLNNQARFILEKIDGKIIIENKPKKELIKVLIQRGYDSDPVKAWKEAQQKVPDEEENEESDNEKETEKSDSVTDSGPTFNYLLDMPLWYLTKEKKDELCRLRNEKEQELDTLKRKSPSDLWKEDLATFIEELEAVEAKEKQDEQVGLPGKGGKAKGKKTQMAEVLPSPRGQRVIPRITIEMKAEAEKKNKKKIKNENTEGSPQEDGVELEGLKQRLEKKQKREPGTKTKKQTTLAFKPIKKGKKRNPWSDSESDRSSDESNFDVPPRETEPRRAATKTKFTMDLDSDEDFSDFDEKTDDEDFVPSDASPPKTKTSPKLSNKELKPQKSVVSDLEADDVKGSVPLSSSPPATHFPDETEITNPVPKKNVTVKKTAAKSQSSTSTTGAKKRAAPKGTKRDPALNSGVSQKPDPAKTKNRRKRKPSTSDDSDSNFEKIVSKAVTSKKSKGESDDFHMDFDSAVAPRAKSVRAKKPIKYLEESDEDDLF

COC1=C(Br)[C@H](O)[C@](O)(CC#N)C=C1Br [Apl-1, aeroplysinin-1]
IC50 [1]: 1370 nM
ΔTm at 2950 µM [2]: 46.4 ± 7.4 °C
